Test results taken from patent publication US9926276B2, “Substituted benzamides with activity towards EP4 receptors” (DRACONIS PHARMA, S.L., priority 2013, dated 2018).

Target: T1, human EP4 receptor (Homo sapiens, UniProt P35408)
Test: Measurement of cAMP responses by Homogeneous Time Resolved Fluorescence (Test 2)
Format: cell-based
Design: expressed in transfected cells
Details: at 10 μM; PGE2 1 nM, HEK-293 cells stably expressing human EP4
Procedure: Test 2: Measurement of cAMP Responses by Homogeneous Time Resolved Fluorescence
cAMP measurements on HEK-293 cells that stably expressed human EP4 receptors were performed by using a system based on Homogeneous Time Resolved Fluorescense (HTRF). This technology allows the direct measurement of cAMP in living cells. The principle of this assay is based on competition between cAMP produced by cells and cAMP-d2 conjugate for the binding with monoclonal anti-cAMP-cryptate conjugate. The HTRF cAMP kit from CisBio was used according to the manufacturer's directions. The experimental procedure was performed as stated below.
Suspended cells (30,000 cells per well) were added to 96-well culture plates in 30 μl of Optimem supplemented with 500 μM IBMX. Compounds were then added in 10 μl of stimulation buffer and incubated at 25° C. for 30 minutes followed by 10 μl of PGE2 to a final concentration of 1 nM. After 30 minutes at 25° C., the reaction was stopped lysing the cells with a mixture of 25 μl of cryptate and 25 μl of cAMP-d2 prepared in the lysis buffer supplied by the manufacturer. Plates were incubated for an additional hour at room temperature and read at 665 nm/620 nm using an UltraEvolution Plate reader (Tecan).
Antagonist percentage inhibition was calculated relating compounds activity to the 0% inhibition of the wells incubated with 1 nM PGE2 alone and 100% inhibition of the wells incubated with 1 nM PGE2 plus 1 μM of the reference antagonist.

T1 sequence (P35408 whole entry): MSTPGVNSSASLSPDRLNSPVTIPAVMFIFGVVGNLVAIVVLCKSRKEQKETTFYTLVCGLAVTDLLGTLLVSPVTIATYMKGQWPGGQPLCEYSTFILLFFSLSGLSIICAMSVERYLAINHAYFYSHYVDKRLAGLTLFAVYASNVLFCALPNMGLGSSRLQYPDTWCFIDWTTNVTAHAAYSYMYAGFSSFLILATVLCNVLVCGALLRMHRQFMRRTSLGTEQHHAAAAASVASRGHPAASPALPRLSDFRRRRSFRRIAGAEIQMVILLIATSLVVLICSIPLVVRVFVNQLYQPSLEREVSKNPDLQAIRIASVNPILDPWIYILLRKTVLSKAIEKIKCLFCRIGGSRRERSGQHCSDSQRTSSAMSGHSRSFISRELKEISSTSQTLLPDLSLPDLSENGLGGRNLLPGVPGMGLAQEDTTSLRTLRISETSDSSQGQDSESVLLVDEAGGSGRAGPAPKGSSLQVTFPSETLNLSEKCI

Row | SMILES | Results of Test 2 (Functional assay, antagonist % inh)
1 | COc1cccc(-c2ccc(Cl)c(C(=O)Nc3c(C)cc(C(=O)O)cc3C)c2)c1 [Example 1, 4-(4-Chloro-3′-methoxybiphenyl-3-ylcarboxamido)-3,5-dimethylbenzoic acid] | $ (% inh >75)
2 | Cc1cc(C(=O)O)cc(C)c1NC(=O)c1cc(-c2cccc(CO)c2)ccc1Cl [Example 2, 4-(4-Chloro-3′-(hydroxymethyl)biphenyl-3-ylcarboxamido)-3,5-dimethylbenzoic acid] | $ (% inh >75)
3 | COc1cccc(-c2ccc(C)c(C(=O)Nc3c(C)cc(C(=O)O)cc3C)c2)c1 [Example 3, 4-(3′-Methoxy-4-methylbiphenyl-3-ylcarboxamido)-3,5-dimethylbenzoic acid] | $ (% inh >75)

Target: T1, human EP4 receptor
Test: Human EP4 receptor radioligand binding assay (Test 1)
Design: expressed in transfected cells; host or cells: HEK-293 cell membranes
Details: [3H]-PGE2 1 nM, transfected HEK-293 cell membranes, read-out: Results of Test 1 (Binding assay, % inh)
Procedure: Test 1: Human EP4 Receptor Radioligand Binding Assay
To investigate binding properties of EP4 receptor ligands to human EP4 receptor, transfected HEK-293 cell membranes and [3H]-PGE2 (Perkin Elmer) were used. In 96-well plates the assay was carried out with a total reaction volume of 250 μl, containing 25 μl of membrane suspension (30 μg protein/well), 25 μl of [3H]-PGE2 (1 nM) in either absence or presence of 25 μl of either buffer or PGE2 (10 μM) for total and non-specific binding, respectively. Binding buffer contained 25 mM MES, 10 mM MgCl2 and 1 mM EDTA at pH 6.0. Plates were incubated at 25° C. for 120 minutes. After the incubation period, 200 μl of incubate were transferred to MultiScreen HTS, FB plates (Millipore), filtered and plates were washed 6 times with ice-cold 10 mM MES, 0.01% BSA at pH 6.0. Filters were dried and counted in a MicroBeta scintillation counter (Perkin-Elmer) using EcoScint liquid scintillation cocktail.
Percentage inhibition was calculated relating compounds activity to the 0% inhibition of the wells incubated with 1 nM [3H]-PGE2 alone (total binding) and 100% inhibition of the wells incubated with 1 nM [3H]-PGE2 plus 10 μM PGE2 (non-specific binding).

Row | inhibition at 10 µM [%] | SMILES
4 | > 75 | O=C(O)c1cc(Cl)c(NC(=O)c2cc(OCc3ccccc3)ccc2Cl)c(Cl)c1 [Example 29, 4-(5-(Benzyloxy)-2-chlorobenzamido)-3,5-dichlorobenzoic acid]
5 | > 75 | CC(C)Oc1ccc(Cl)c(C(=O)Nc2c(Cl)cc(C(=O)O)cc2Cl)c1 [Example 30, 3,5-Dichloro-4-(2-chloro-5-isopropoxybenzamido)benzoic acid]
6 | > 75 | COc1ccc(Cl)c(C(=O)Nc2c(Cl)cc(C(=O)O)cc2Cl)c1 [Example 31, 3,5-Dichloro-4-(2-chloro-5-methoxybenzamido)benzoic acid]
7 | > 75 | O=C(O)c1cc(Cl)c(NC(=O)c2cc(OCC3CCC3)ccc2Cl)c(Cl)c1 [Example 32, 3,5-Dichloro-4-(2-chloro-5-(cyclobutylmethoxy)benzamido)benzoic acid]
8 | > 75 | CCOc1ccc(Cl)c(C(=O)Nc2c(Cl)cc(C(=O)O)cc2Cl)c1 [Example 33, 3,5-Dichloro-4-(2-chloro-5-ethoxybenzamido)benzoic acid]
9 | > 75 | CC(C)(C)COc1ccc(Cl)c(C(=O)Nc2c(Cl)cc(C(=O)O)cc2Cl)c1 [Example 34, 3,5-Dichloro-4-(2-chloro-5-(neopentyloxy)benzamido)benzoic acid]
10 | > 75 | O=C(O)c1cc(Cl)c(NC(=O)c2nc(NCC3CC3)ccc2Cl)c(Cl)c1 [Example 50, 3,5-Dichloro-4-(3-chloro-6-(cyclopropylmethylamino)picolinamido)benzoic acid]
11 | > 75 | O=C(O)c1cc(Cl)c(NC(=O)c2nc(NC3CCCC3)ccc2Cl)c(Cl)c1 [Example 51, 3,5-Dichloro-4-(3-chloro-6-(cyclopentylamino)picolinamido)benzoic acid]
12 | > 75 | COCCN(C)c1ccc(Cl)c(C(=O)Nc2c(Cl)cc(C(=O)O)cc2Cl)n1 [Example 53, 3,5-Dichloro-4-(3-chloro-6-((2-methoxyethyl)(methyl)amino)-picolinamido)benzoic acid]
13 | > 75 | CCCCN(C)c1ccc(Cl)c(C(=O)Nc2c(Cl)cc(C(=O)O)cc2Cl)n1 [Example 54, 4-(6-(Butyl(methyl)amino)-3-chloropicolinamido)-3,5-dichlorobenzoic acid]
14 | > 75 | CCN(CC)c1ccc(Cl)c(C(=O)Nc2c(Cl)cc(C(=O)O)cc2Cl)n1 [Example 55, 3,5-Dichloro-4-(3-chloro-6-(diethylamino)picolinamido)benzoic acid]
15 | > 75 | CCCNc1ccc(Cl)c(C(=O)Nc2c(Cl)cc(C(=O)O)cc2Cl)n1 [Example 56, 3,5-Dichloro-4-(3-chloro-6-(propylamino)picolinamido)benzoic acid]
16 | > 75 | Cc1ccc(CC2CCCCC2)cc1C(=O)Nc1c(Cl)cc(C(=O)O)cc1Cl [Example 61, 3,5-Dichloro-4-(5-(cyclohexylmethyl)-2-methylbenzamido)benzoic acid]
17 | > 75 | O=C(O)c1cc(Cl)c(NC(=O)c2cc(Cc3ccccc3)ccc2Cl)c(Cl)c1 [Example 62, 4-(5-Benzyl-2-chlorobenzamido)-3,5-dichlorobenzoic acid]
18 | > 75 | CC(C)Cc1ccc(Cl)c(C(=O)Nc2c(Cl)cc(C(=O)O)cc2Cl)c1 [Example 63, 3,5-Dichloro-4-(2-chloro-5-isobutylbenzamido)-benzoic acid]

The next lines start with the compound.

Row | SMILES | inhibition at 10 µM [%]
19 | CC(C)COc1ccc(Cl)c(C(=O)Nc2ccc(C(=O)O)cc2Cl)c1 [Example 26, 3-Chloro-4-(2-chloro-5-isobutoxybenzamido)benzoic acid] | > 75
20 | Cc1cc(C(=O)O)cc(Cl)c1NC(=O)c1cc(OCC(C)C)ccc1Cl [Example 27, 3-Chloro-4-(2-chloro-5-isobutoxybenzamido)-5-methylbenzoic acid] | > 75
21 | COc1cc(C(=O)O)ccc1NC(=O)c1cc(OCC(C)C)ccc1Cl [Example 28, 4-(2-Chloro-5-isobutoxybenzamido)-3-methoxybenzoic acid] | > 75
22 | O=C(Nc1c(F)c(F)c(C(=O)O)c(F)c1F)c1cc(OCc2ccc(F)cc2F)ccc1Cl [Example 37, 4-(2-Chloro-5-(2,4-difluorobenzyloxy)benzamido)-2,3,5,6-tetrafluorobenzoic acid] | 45 to 75
23 | Cc1ccc(C(=O)O)cc1NC(=O)c1cc(-c2nccc(C(F)(F)F)n2)ccc1Cl [Example 43, 3-(2-Chloro-5-(4-(trifluoromethyl)pyrimidin-2-yl)benzamido)-4-methylbenzoic acid] | > 75
24 | Cc1ccc(C(=O)O)cc1NC(=O)c1cc(OCC(C)C)ccc1Cl [Example 44, 3-(2-Chloro-5-isobutoxybenzamido)-4-methylbenzoic acid] | > 75
25 | CC(C)COc1ccc(Cl)c(C(=O)Nc2c(Cl)cc(C(=O)O)cc2Cl)n1 [Example 49, 3,5-Dichloro-4-(3-chloro-6-isobutoxypicolinamido)benzoic acid] | > 75
26 | CCN(C(=O)c1cc(OCC(C)C)ccc1Cl)c1c(Cl)cc(C(=O)O)cc1Cl [Example 66, 3,5-Dichloro-4-(2-chloro-5-isobutoxy-N-ethylbenzamido)benzoic acid] | > 75
27 | CC(C)COc1ccc(Cl)c(C(=O)N(CC(C)C)c2c(Cl)cc(C(=O)O)cc2Cl)c1 [Example 67, 3,5-Dichloro-4-(2-chloro-5-isobutoxy-N-isobutylbenzamido)benzoic acid] | > 75
28 | CCN(C(=O)c1cc(OCc2ccc(F)cc2F)ccc1Cl)c1c(Cl)cc(C(=O)O)cc1Cl [Example 69, 3,5-Dichloro-4-(2-chloro-5-(2,4-difluorobenzyloxy)-N-ethylbenzamido)benzoic acid] | > 75
29 | CCN(C(=O)c1cc(OCc2ccc(Cl)cc2F)ccc1Cl)c1c(Cl)cc(C(=O)O)cc1Cl [Example 70, 3,5-Dichloro-4-(2-chloro-5-(4-chloro-2-fluorobenzyloxy)-N-ethylbenzamido)benzoic acid] | > 75
30 | Cc1ccc(C(=O)O)cc1NC(=O)c1cc(OCc2ccccc2)ccc1Cl [Example 71, Sodium 3-(5-(benzyloxy)-2-chlorobenzamido)-4-methylbenzoate] | > 75

Same assay, conditions: at 10 μM; [3H]-PGE2 1 nM, transfected HEK-293 cell membranes

Row | SMILES | Results of Test 1 (Binding assay, % inh)
31 | COc1cccc(-c2ccc(Cl)c(C(=O)Nc3c(C)cc(C(=O)O)cc3C)c2)c1 [Example 1, 4-(4-Chloro-3′-methoxybiphenyl-3-ylcarboxamido)-3,5-dimethylbenzoic acid] | # (% inh >75)
32 | Cc1cc(C(=O)O)cc(C)c1NC(=O)c1cc(-c2cccc(CO)c2)ccc1Cl [Example 2, 4-(4-Chloro-3′-(hydroxymethyl)biphenyl-3-ylcarboxamido)-3,5-dimethylbenzoic acid] | # (% inh >75)
33 | COc1cccc(-c2ccc(C)c(C(=O)Nc3c(C)cc(C(=O)O)cc3C)c2)c1 [Example 3, 4-(3′-Methoxy-4-methylbiphenyl-3-ylcarboxamido)-3,5-dimethylbenzoic acid] | # (% inh >75)
34 | Cc1c(NC(=O)c2cc(-c3cccc(Cl)c3)ccc2Cl)cccc1C(=O)O [Example 39, 3-(3′,4-Dichlorobiphenyl-3-ylcarboxamido)-2-methylbenzoic acid] | # (% inh >75)
35 | Cc1ccc(C(=O)O)cc1NC(=O)c1cc(-c2cccc(Cl)c2)ccc1Cl [Example 40, 3-(3′,4-Dichlorobiphenyl-3-ylcarboxamido)-4-methylbenzoic acid] | # (% inh >75)
36 | O=C(O)c1ccc(Cl)c(NC(=O)c2cc(-c3cccc(Cl)c3)ccc2Cl)c1 [Example 41, 4-Chloro-3-(3′,4-dichlorobiphenyl-3-ylcarboxamido)benzoic acid] | # (% inh >75)
